Data set [1] deals with Candida albicans (ATCC 10231). Kind of data set: Stand-alone biocidal test without organic soil. It is filed as cell-based. To be noted: 25 ppm in BBS; for log reduction at 25 ppm: Candida albicans, ATCC10231, without organic soil, read-out: Stand-alone biocidal result (microbial log reduction) C. albicans. Here is the method: (§1) A test was conducted to study the microbiocidal efficacy of a solution containing a quaternary ammonium ester of the present invention employing borate buffered saline (BBS). The antimicrobial efficacy of each of the various compositions for the chemical disinfection of contact lenses was evaluated. Microbial challenge inoculums were prepared using Pseudomonas aeruginosa (ATCC 9027), Staphylococcus aureus (ATCC 6538), Serratia marcescens (ATCC 13880), Candida albicans (ATCC 10231) and Fusarium solani (ATCC 36031). The test organisms were cultured on appropriate agar and the cultures were harvested using sterile DPBST (Dulbecco's Phosphate Buffered Saline plus 0.05 percent weight/volume polysorbate 80) or a suitable diluent and transferred to a suitable vessel. Spore suspensions were filtered through sterile glass wool to remove hyphal fragments. Serratia marcescens, as appropriate, was filtered through a 1.2 mμ filter to clarify the suspension. After harvesting, the suspension was centrifuged at no more than 5000×g for a maximum of 30 minutes at 20 to 25° C. The supernatant was poured off and resuspended in DPBST or other suitable diluent. The suspension was centrifuged a second time, and resuspended in DPBST or other suitable diluent. All challenge bacterial and fungal cell suspensions were adjusted with DPBST or other suitable diluent to 1×10^7 to 1×10^8 cfu/ml. The appropriate cell concentration may be estimated by measuring the turbidity of the suspension, for example, using a spectrophotometer at a preselected wavelength, for example 490 nm. One tube was prepared containing a minimum of 10 ml of test solution per challenge organism. Each tube of the solution to be tested was inoculated with a suspension of the test organism sufficient to provide a final count of 1×10^5 to 1×10^6 cfu/ml, the volume of the inoculum not exceeding 1 percent of the sample volume. Dispersion of the inoculum was ensured by vortexing the sample for at least 15 seconds. The inoculated product was stored at 10 to 25° C. Aliquots in the amount of 1.0 ml were taken of the inoculated product for determination of viable counts after certain time periods of disinfection. The time points for the bacteria were, for example, 1, 2, 3 and 4 hours when the proposed regimen soaking time was four hours. Yeast and mold were tested at an additional timepoint of 16 hours (4 times the regimen time). The suspension was mixed well by vortexing vigorously for at least 5 seconds. The 1.0 ml aliquots removed at the specified time intervals were subjected to a suitable series of decimal dilutions in validated neutralizing media. The suspensions were mixed vigorously and incubated for a suitable period of time to allow for neutralization of the microbial agent at room temperature. The viable count of organisms was determined in appropriate dilutions by preparation of triplicate plates of trypticase soy (TSA) agar for bacteria and Sabouraud dextrose agar (SDA) for mold and yeast. The bacterial recovery plates were incubated at 30 to 35° C. for two to four days. The yeast was incubated at 20 to 30° C. for two to four days and mold recovery plates were incubated at 20 to 25° C. for three to seven days. The average number of colony forming units was determined on countable plates. Countable plates refer to 30 to 300 cfu/plates for bacteria and yeast, and 8 to 80 cfu/plate for mold except when colonies are observed only for the 10^0 or 10^−1 dilution plates. The microbial reduction was then calculated at the specified time points. […] Following inoculation in a validated neutralizing broth and incubation for an appropriate period of time, the inoculum control must be between 1.0×10^5 to 1.0×10^6 cfu/ml. […]

Data set [2] deals with Fusarium solani (ATCC 36031). Kind of data set: Stand-alone biocidal test without organic soil. In kind it is cell-based. To be noted: 25 ppm in BBS; for log reduction at 25 ppm: Fusarium solani, ATCC36031, without organic soil, read-out: Stand-alone biocidal result (microbial log reduction) F. solani. Here is the method:
as §1

Data set [3] deals with Pseudomonas aeruginosa (ATCC 9027). Kind of data set: Stand-alone biocidal test without organic soil. In kind it is cell-based. The following applies: 25 ppm in BBS; for Stand-alone biocidal result (microbial log reduction) P. aeruginosa: without organic soil. Here is the method:
as §1

Data set [4] has as its system Serratia marcescens (ATCC 13880). Kind of data set: Stand-alone biocidal test without organic soil. In kind it is cell-based. To be noted: 25 ppm in BBS; for Stand-alone biocidal result (microbial log reduction) S. marcescens: without organic soil. The procedure: as §1
Data set [5] relates to Staphylococcus aureus (ATCC 6538). Kind of data set: Stand-alone biocidal test without organic soil. It is filed as cell-based. The following applies: 25 ppm in BBS; for Stand-alone biocidal result (microbial log reduction) S. aureus: without organic soil. The procedure:
as §1

Where a name gives a salt, the structure may show the parent alone. Read-outs that look alike come from different tables or passages of the source. Where only a bound is given, the exact number is not on record here.

What is called melting point is the temperature of the solid-liquid transition. Compound `CCCCCCCCCCCCCC(=O)OCCC[N+](C)(C)Cc1ccccc1` (as salt: chloride) [Compound 1, N-myristoyloxypropyl-N-benzyl-N,N-dimethylammonium chloride] registered a melting point of 93 to 95 °C.

On to `CCCCCCCC(=O)OCCC[N+](C)(C)C` (as salt: iodide) [Compound 2, N-capryloyloxypropyl-N,N,N-trimethylammonium iodide], for which the melting point was 107 to 109 °C.

Take `CCCCCCCC(=O)OCCC[N+](C)(C)C` [Compound 2, N-capryloyloxypropyl-N,N,N-trimethylammonium iodide]: the log reduction at 25 ppm in data set [1] (1 hr.) was 0; in data set [1] (4 hr.), 0.2; in data set [2] (1 hr.), 0.1; in data set [2] (4 hr.) it was 0.6. The “Stand-alone biocidal result (microbial log reduction) P. aeruginosa” value in data set [3] (1 hr.) and in data set [3] (4 hr.) was “TNTC” each time. The “Stand-alone biocidal result (microbial log reduction) S. marcescens” value in data set [4] (1 hr.) and in data set [4] (4 hr.) was “TNTC” each time. For the same compound, the “Stand-alone biocidal result (microbial log reduction) S. aureus” value in data set [5] (1 hr.) and in data set [5] (4 hr.) was “TNTC” throughout.

For the compound `CCCCCCCCCCCC(=O)OCCC[N+](C)(C)C` [Compound 4, N-lauroyloxypropyl-N,N,N-trimethylammonium iodide], the log reduction at 25 ppm in data set [1] (1 hr.) was found to be 0; in data set [1] (4 hr.), 0.1; in data set [2] (1 hr.), 0.1; in data set [2] (4 hr.) it was 0.6. Besides, the “Stand-alone biocidal result (microbial log reduction) P. aeruginosa” value in data set [3] (1 hr.) came out at 2.0; in data set [3] (4 hr.), 3.0. The “Stand-alone biocidal result (microbial log reduction) S. marcescens” value in data set [4] (1 hr.) and in data set [4] (4 hr.) was “TNTC” in each case. Further, the “Stand-alone biocidal result (microbial log reduction) S. aureus” value in data set [5] (1 hr.) and in data set [5] (4 hr.) was “TNTC” throughout.

For `CCCCCCCCCCCCCC(=O)OCCC[N+](C)(C)C` [Compound 5, N-myristoyloxypropyl-N,N,N-trimethylammonium iodide], the log reduction at 25 ppm came out at 1.9 in data set [1] (1 hr.), 3.4 in data set [1] (4 hr.), 3.2 in data set [2] (1 hr.) and 3.3 in data set [2] (4 hr.). Also, the “Stand-alone biocidal result (microbial log reduction) P. aeruginosa” value in data set [3] (1 hr.) and in data set [3] (4 hr.) was above 4.6 in each case. The “Stand-alone biocidal result (microbial log reduction) S. marcescens” value is 3.4 in data set [4] (1 hr.) and above 4.6 in data set [4] (4 hr.). Further, the “Stand-alone biocidal result (microbial log reduction) S. aureus” value in data set [5] (1 hr.) and in data set [5] (4 hr.) was above 4.7 in each case.

Consider `CCCCCCCCCCCCCCCCCC(=O)OCCC[N+](C)(C)C` [Compound 7, N-stearoyloxypropyl-N,N,N-trimethylammonium iodide], for which the log reduction at 25 ppm in data set [1] (1 hr.) was found to be 0.7; in data set [1] (4 hr.) it was 2.5; in data set [2] (1 hr.), 2.9; in data set [2] (4 hr.), 3.5. For the same compound, the results for the “Stand-alone biocidal result (microbial log reduction) P. aeruginosa” value in data set [3] (1 hr.) and in data set [3] (4 hr.) were 2.0 and 3.3, respectively. Also, the “Stand-alone biocidal result (microbial log reduction) S. marcescens” value in data set [4] (1 hr.) and in data set [4] (4 hr.) was “TNTC” throughout. The “Stand-alone biocidal result (microbial log reduction) S. aureus” value in data set [5] (1 hr.) was 3.5; in data set [5] (4 hr.), above 4.8.

Take `CCCCCCCCCCCCCC(=O)OCCC[N+](C)(C)CCCC` [Compound 10, N-myristoyloxypropyl-N-butyl-N,N-dimethylammonium iodide]: the log reduction at 25 ppm in data set [1] (1 hr.) was 4.5; in data set [1] (4 hr.), above 4.8; in data set [2] (1 hr.) it was above 4.5; in data set [2] (4 hr.) it was above 4.5. In addition, the “Stand-alone biocidal result (microbial log reduction) P. aeruginosa” value in data set [3] (1 hr.) was above 4.7; in data set [3] (4 hr.) it was 4.7. The entries for the “Stand-alone biocidal result (microbial log reduction) S. marcescens” value in data set [4] (1 hr.) and in data set [4] (4 hr.) were 3.8 and above 4.8, respectively. In addition, the “Stand-alone biocidal result (microbial log reduction) S. aureus” value in data set [5] (1 hr.) and in data set [5] (4 hr.) was above 4.8 each time.

As for `CCCCCCCCCCCCCC(=O)OCCC[N+](C)(C)CCCCCCCCCC` [Compound 13, N-myristoyloxypropyl-N-decyl-N,N-dimethylammonium iodide], the log reduction at 25 ppm in data set [1] (1 hr.) turned out to be 0.5; in data set [1] (4 hr.), 1.2; in data set [2] (1 hr.), 1.5; in data set [2] (4 hr.), 3.1. The “Stand-alone biocidal result (microbial log reduction) P. aeruginosa” value in data set [3] (1 hr.) amounted to 3.5; in data set [3] (4 hr.) it was 4.7. Moreover, the entries for the “Stand-alone biocidal result (microbial log reduction) S. marcescens” value in data set [4] (1 hr.) and in data set [4] (4 hr.) were “TNTC” and 2.9, respectively. The figures for the “Stand-alone biocidal result (microbial log reduction) S. aureus” value in data set [5] (1 hr.) and in data set [5] (4 hr.) were 3.8 and 4.8, respectively.

`CCCCCCCCCCCCCC(=O)OCCOCC[N+](C)(C)C` [Compound 15, N-myristoyloxyethoxyethyl-N,N,N-trimethylammonium iodide]: the log reduction at 25 ppm was 3.6 in data set [1] (1 hr.), 4.6 in data set [1] (4 hr.), 3.8 in data set [2] (1 hr.) and 4.1 in data set [2] (4 hr.). Besides, the “Stand-alone biocidal result (microbial log reduction) P. aeruginosa” value in data set [3] (1 hr.) and in data set [3] (4 hr.) was above 4.7 each time. Moreover, the “Stand-alone biocidal result (microbial log reduction) S. marcescens” value was 3.8 in data set [4] (1 hr.) and above 4.8 in data set [4] (4 hr.). Moreover, the “Stand-alone biocidal result (microbial log reduction) S. aureus” value in data set [5] (1 hr.) and in data set [5] (4 hr.) was above 4.8 each time.

For `CCCCCCCCCCCCCC(=O)NCCC[N+](C)(C)C.[I-]` [N-myristamidopropyl-N,N,N-trimethylammonium iodide, reference compound], in data set [1], the “Effectiveness against C. albicans (stand-alone biocidal data)” value (shortened to “Effectiveness against C. albicans”) was “failed”. For the same compound, the “Effectiveness against F. solani (stand-alone biocidal data)” value (shortened to “Effectiveness against F. solani”) in data set [2] was “failed”. For the same compound, in data set [3], the “Effectiveness against P. aeruginosa (stand-alone biocidal data)” value (“Effectiveness against P. aeruginosa” for short) is recorded as “proved effective”. The “Effectiveness against S. marcescens (stand-alone biocidal data)” value (“Effectiveness against S. marcescens” below) in data set [4] is “failed”. Also, the “Effectiveness against S. aureus (stand-alone biocidal data)” value (shortened to “Effectiveness against S. aureus”) in data set [5] was “proved effective”.

With `CCCCCCCCCCCCCC(=O)NCCCN(C)C` [N-myristamidopropyl-N,N-dimethylamine, reference compound], the “Effectiveness against C. albicans” value in data set [1] was “effective”. Besides, in data set [2], the “Effectiveness against F. solani” value was “effective”. Besides, the “Effectiveness against P. aeruginosa” value in data set [3] is on record as “effective”. The “Effectiveness against S. marcescens” value in data set [4] is “not effective”. In data set [5], the “Effectiveness against S. aureus” value is “effective”.

Turning to `CCCCCCCCCCCCCC(=O)OCCCN(C)C` [N-myristoyloxypropyl-N,B-dimethylamine, reference compound], in data set [1], the “Effectiveness against C. albicans” value is “failed to be effective”. The “Effectiveness against F. solani” value in data set [2] is “failed to be effective”. Besides, the “Effectiveness against P. aeruginosa” value in data set [3] is on record as “failed to be effective”. For the same compound, the “Effectiveness against S. marcescens” value in data set [4] is on record as “failed to be effective”. Also, the “Effectiveness against S. aureus” value in data set [5] is reported as “failed to be effective”.

The values above are taken from patent publication US20040115160A1, “Quaternary ammonium esters for disinfection and preservation” (priority 2002, published 2004).
